Patent US20100311714A1, “1H-IMIDAZO[4,5-c]QUINOLINONE COMPOUNDS” (priority 2009, published 2010)

Key:
[1] = system: PKB Ser473 phosphorylation in Rat1-myr-HA-p110 beta cells; test: Reverse protein array, PKB Ser473 phosphorylation in Rat1-myr-HA-p110 beta cells; type: cell-based; conditions: Rattus norvegicus, 0.5 h, 30 minutes compound incubation, read-out: p-PKB/IC50_beta
[2] = Parallel Artificial Membrane Permeability Assay (PAMPA) at pH 6.8; type: physicochemical
Text: The physicochemical properties of relevance for the absorption of the compound, such as the solubility and the membrane permeability, especially at a pH close to neutral pH can be measured using the procedure as described by L. ZHOU et al. in JOURNAL OF PHARMACEUTICAL SCIENCES, VOL. 96, NO. 11, p. 3052-3071 (2007) for the solubility at pH 6.8 and the procedure as described by F. Wohnsland and B. Faller in Journal of Medicinal Chemistry Vol 44, p. 923-930 (2001) for the Parallel Artificial Membrane Permeability Assay (PAMPA) at pH 6.8.
The following permeability log Pe was measured for compound of formula (I) as exemplified below: […]

Structure (SMILES) | IC50 [1] [nM] | HT-Perm logPe pH6.8 [2] | HT-perm/logPe pH6.8 [2]
CCOc1ccc(-c2ccc3ncc4c(c3c2)n(-c2ncccc2C)c(=O)n4C)cn1 [Example 3.6, 8-(6-Ethoxy-pyridin-3-yl)-3-methyl-1-(3-methyl-pyridin-2-yl)-1,3-dihydro-imidazo[4,5-c]quinolin-2-one] | 546 | – | –
COc1ccc(-c2ccc3ncc4c(c3c2)n(-c2cnccc2C)c(=O)n4C)cn1 [Example 4.3, 8-(6-Methoxy-pyridin-3-yl)-3-methyl-1-(4-methyl-pyridin-3-yl)-1,3-dihydro-imidazo[4,5-c]quinolin-2-one] | 363 | – | −3.7
Cc1cccnc1-n1c(=O)n(C)c2cnc3ccc(-c4cnc(N)c(C(F)(F)F)c4)cc3c21 [Example 3.12, 8-(6-Amino-5-trifluoromethyl-pyridin-3-yl)-3-methyl-1-(3-methyl-pyridin-2-yl)-1,3-dihydro-imidazo[4,5-c]quinolin-2-one] | 172 | – | −4.0
CCOc1ncc(-c2ccc3ncc4c(c3c2)n(-c2ncccc2C)c(=O)n4C)cn1 [Example 3.1, 8-(2-Ethoxy-pyrimidin-5-yl)-3-methyl-1-(3-methyl-pyridin-2-yl)-1,3-dihydro-imidazo[4,5-c]quinolin-2-one] | – | – | −3.8
CCNc1ncc(-c2ccc3ncc4c(c3c2)n(-c2ccc(C(C)(C)O)nc2C)c(=O)n4C)cn1 [Example 31.7, 8-(2-Ethylamino-pyrimidin-5-yl)-1-[6-(1-hydroxy-1-methyl-ethyl)-2-methyl-pyridin-3-yl]-3-methyl-1,3-dihydro-imidazo[4,5-c]quinolin-2-one] | – | −4.6 | –
Cc1cccnc1-n1c(=O)n(C)c2cnc3ccc(-c4ccc(N(C)C)nc4)cc3c21 [Example 3.11, 8-(6-Dimethylamino-pyridin-3-yl)-3-methyl-1-(3-methyl-pyridin-2-yl)-1,3-dihydro-imidazo[4,5-c]quinolin-2-one] | – | – | −3.4
Cc1cccnc1-n1c(=O)n(C)c2cnc3ccc(-c4ccc(CO)nc4)cc3c21 [Example 3.9, 8-(6-Hydroxymethyl-pyridin-3-yl)-3-methyl-1-(3-methyl-pyridin-2-yl)-1,3-dihydro-imidazo[4,5-c]quinolin-2-one] | 689 | – | –
Cc1nc(C(C)(C)O)ccc1-n1c(=O)n(C)c2cnc3ccc(-c4cncc(C5(C#N)CCC5)c4)cc3c21 [Example 31.8, 1-(5-{1-[6-(1-Hydroxy-1-methyl-ethyl)-2-methyl-pyridin-3-yl]-3-methyl-2-oxo-2,3-dihydro-1H-imidazo[4,5-c]quinolin-8-yl}-pyridin-3-yl)-cyclobutanecarbonitrile] | – | −4.3 | –
COc1ncc(-c2ccc3ncc4c(c3c2)n(-c2ccc(N3CC(O)C3)nc2C)c(=O)n4C)c(OC)n1 [Example 29.6, 8-(2,4-Dimethoxy-pyrimidin-5-yl)-1-[6-(3-hydroxy-azetidin-1-yl)-2-methyl-pyridin-3-yl]-3-methyl-1,3-dihydro-imidazo[4,5-c]quinolin-2-one] | 208 | – | –
CCOc1ccc(-c2ccc3ncc4c(c3c2)n(-c2ccc(C(C)(C)O)nc2C)c(=O)n4C)cn1 [Example 31.4, 8-(6-Ethoxy-pyridin-3-yl)-1-[6-(1-hydroxy-1-methyl-ethyl)-2-methyl-pyridin-3-yl]-3-methyl-1,3-dihydro-imidazo[4,5-c]quinolin-2-one] | – | −3.7 | –
Cc1nc(C(C)(C)O)ccc1-n1c(=O)n(C)c2cnc3ccc(-c4cncc(C(C)(C)C#N)c4)cc3c21 [Example 31.6, 2-(5-{1-[6-(1-Hydroxy-1-methyl-ethyl)-2-methyl-pyridin-3-yl]-3-methyl-2-oxo-2,3-dihydro-1H-imidazo[4,5-c]quinolin-8-yl}-pyridin-3-yl)-2-methyl-propionitrile] | – | −4.4 | –
Cn1c(=O)n(-c2cccnc2)c2c3cc(-c4ccc(CO)nc4)ccc3ncc21 [Example 5.1, 8-(6-Hydroxymethyl-pyridin-3-yl)-3-methyl-1-pyridin-3-yl-1,3-dihydro-imidazo[4,5-c]quinolin-2-one] | 166 | – | –
CNC(=O)c1ccc(-c2ccc3ncc4c(c3c2)n(-c2ncccc2C)c(=O)n4C)cc1 [Example 3.5, N-Methyl-4-[3-methyl-1-(3-methyl-pyridin-2-yl)-2-oxo-2,3-dihydro-1H-imidazo[4,5-c]quinolin-8-yl]-benzamide] | 131 | – | –
Cc1nc(C(C)(C)O)ccc1-n1c(=O)n(C)c2cnc3ccc(-c4cnc(N)c(C(F)(F)F)c4)cc3c21 [Example 31.5, 8-(6-Amino-5-trifluoromethyl-pyridin-3-yl)-1-[6-(1-hydroxy-1-methyl-ethyl)-2-methyl-pyridin-3-yl]-3-methyl-1,3-dihydro-imidazo[4,5-c]quinolin-2-one] | – | −4.3 | –
Cc1cccnc1-n1c(=O)n(C)c2cnc3ccc(-c4ccc(C(N)=O)cc4)cc3c21 [Example 3.3, 4-[3-Methyl-1-(3-methyl-pyridin-2-yl)-2-oxo-2,3-dihydro-1H-imidazo[4,5-c]quinolin-8-yl]-benzamide] | 259 | – | –
Cc1ncccc1-n1c(=O)n(C)c2cnc3ccc(-c4ccc(OCCCN(C)C)nc4)cc3c21 [Example 2.10, 8-[6-(3-Dimethylamino-propoxy)-pyridin-3-yl]-3-methyl-1-(2-methyl-pyridin-3-yl)-1,3-dihydro-imidazo[4,5-c]quinolin-2-one] | 84.2 | – | –

More lines, now with the values ahead:

IC50 [1] [nM] | HT-Perm logPe pH6.8 [2] | HT-perm/logPe pH6.8 [2] | Structure (SMILES)
27.9 | −4.1 | – | CCNc1ncc(-c2ccc3ncc4c(c3c2)n(-c2ccc(N3CC[C@@H](O)C3)nc2C)c(=O)n4C)cc1COCC [Example 34.4, 8-(5-Ethoxymethyl-6-ethylamino-pyridin-3-yl)-1-[6-((R)-3-hydroxy-pyrrolidin-1-yl)-2-methyl-pyridin-3-yl]-3-methyl-1,3-dihydro-imidazo[4,5-c]quinolin-2-one]
10.2 | – | −3.8 | Cn1c(=O)n(-c2cccnc2F)c2c3cc(-c4cnc(N)c(C(F)(F)F)c4)ccc3ncc21 [Example 6.2, 8-(6-Amino-5-trifluoromethyl-pyridin-3-yl)-1-(2-fluoro-pyridin-3-yl)-3-methyl-1,3-dihydro-imidazo[4,5-c]quinolin-2-one]
18.7 | – | −4.7 | CNc1ccc(-c2ccc3ncc4c(c3c2)n(-c2cccnc2C)c(=O)n4C)cn1 [Example 2.13, 3-Methyl-8-(6-methylamino-pyridin-3-yl)-1-(2-methyl-pyridin-3-yl)-1,3-dihydro-imidazo[4,5-c]quinolin-2-one]
50 | −4.5 | – | Cc1nc(C(F)(F)F)ccc1-n1c(=O)n(C)c2cnc3ccc(-c4cncc(C(C)(C)O)c4)cc3c21 [Example 33.1, 8-[5-(1-Hydroxy-1-methyl-ethyl)-pyridin-3-yl]-3-methyl-1-(2-methyl-6-trifluoromethyl-pyridin-3-yl)-1,3-dihydro-imidazo[4,5-c]quinolin-2-one]
31.9 | −5.1 | – | CNc1ncc(-c2ccc3ncc4c(c3c2)n(-c2ccc(N3CC(O)C3)nc2C)c(=O)n4C)cc1F [Example 29.3, 8-(5-Fluoro-6-methylamino-pyridin-3-yl)-1-[6-(3-hydroxy-azetidin-1-yl)-2-methyl-pyridin-3-yl]-3-methyl-1,3-dihydro-imidazo[4,5-c]quinolin-2-one]
15.1 | – | – | Cc1nc(N2CCC2)ccc1-n1c(=O)n(C)c2cnc3ccc(-c4cncc(N5CCC5)c4)cc3c21 [Example 23.1, 1-(6-Azetidin-1-yl-2-methyl-pyridin-3-yl)-8-(5-azetidin-1-yl-pyridin-3-yl)-3-methyl-1,3-dihydro-imidazo[4,5-c]quinolin-2-one]
19.2 | – | – | Cc1ncccc1-n1c(=O)n(C)c2cnc3ccc(-c4ccc(N)nc4)cc3c21 [Example 2.7, 8-(6-Amino-pyridin-3-yl)-3-methyl-1-(2-methyl-pyridin-3-yl)-1,3-dihydro-imidazo[4,5-c]quinolin-2-one]
15.9 | – | – | Cc1ncccc1-n1c(=O)n(C)c2cnc3ccc(-c4ccc(C(N)=O)cc4)cc3c21 [Example 2.3, 4-[3-Methyl-1-(2-methyl-pyridin-3-yl)-2-oxo-2,3-dihydro-1H-imidazo[4,5-c]quinolin-8-yl]-benzamide]
72.9 | – | – | Cc1ncccc1-n1c(=O)n(C)c2cnc3ccc(-c4ccc(CO)nc4)cc3c21 [Example 2.6, 8-(6-Hydroxymethyl-pyridin-3-yl)-3-methyl-1-(2-methyl-pyridin-3-yl)-1,3-dihydro-imidazo[4,5-c]quinolin-2-one]
33.3 | – | – | CCOc1ccc(-c2ccc3ncc4c(c3c2)n(-c2ccc(N3CCNCC3)nc2OC)c(=O)n4C)cn1 [Example 9.1, 8-(6-Ethoxy-pyridin-3-yl)-1-(2-methoxy-6-piperazin-1-yl-pyridin-3-yl)-3-methyl-1,3-dihydro-imidazo[4,5-c]quinolin-2-one]
20.6 | – | – | COc1nc(N2CCNCC2)ccc1-n1c(=O)n(C)c2cnc3ccc(-c4cnc(N)c(C(F)(F)F)c4)cc3c21 [Example 9.2, 8-(6-Amino-5-trifluoromethyl-pyridin-3-yl)-1-(2-methoxy-6-piperazin-1-yl-pyridin-3-yl)-3-methyl-1,3-dihydro-imidazo[4,5-c]quinolin-2-one]
6.8 | – | – | CNc1ccc(-c2ccc3ncc4c(c3c2)n(-c2ccc(N3CCC3)nc2C)c(=O)n4C)cn1 [Example 23.4, 1-(6-Azetidin-1-yl-2-methyl-pyridin-3-yl)-3-methyl-8-(6-methylamino-pyridin-3-yl)-1,3-dihydro-imidazo[4,5-c]quinolin-2-one]
16.9 | – | – | COc1ncccc1-n1c(=O)n(C)c2cnc3ccc(-c4ccc(C(N)=O)cc4)cc3c21 [Example 1.6, 4-[1-(2-Methoxy-pyridin-3-yl)-3-methyl-2-oxo-2,3-dihydro-1H-imidazo[4,5-c]quinolin-8-yl]-benzamide]
